Results from patent publication US7132252B2, “Methods for detecting the interaction of compounds with cytochrome P450 using optical molecular sensors” (Invitrogen Corporation, priority 1998, dated 2006).
Where “and” joins values, the source holds several entries; their conditions need not be identical. Equal values may be shown once.

Tests used:
CYP3A4 [1] = target: T1, CYP3A4 (Homo sapiens, UniProt P08684); assay: Kinetic properties of fluorogenic substrates with CYP 3A4; type: biochemical; conditions: for v (1.25 uM): turnover rate at 1.25 uM substrate; for v (10 uM): turnover rate at 10 uM substrate
T1 sequence (P08684 whole entry): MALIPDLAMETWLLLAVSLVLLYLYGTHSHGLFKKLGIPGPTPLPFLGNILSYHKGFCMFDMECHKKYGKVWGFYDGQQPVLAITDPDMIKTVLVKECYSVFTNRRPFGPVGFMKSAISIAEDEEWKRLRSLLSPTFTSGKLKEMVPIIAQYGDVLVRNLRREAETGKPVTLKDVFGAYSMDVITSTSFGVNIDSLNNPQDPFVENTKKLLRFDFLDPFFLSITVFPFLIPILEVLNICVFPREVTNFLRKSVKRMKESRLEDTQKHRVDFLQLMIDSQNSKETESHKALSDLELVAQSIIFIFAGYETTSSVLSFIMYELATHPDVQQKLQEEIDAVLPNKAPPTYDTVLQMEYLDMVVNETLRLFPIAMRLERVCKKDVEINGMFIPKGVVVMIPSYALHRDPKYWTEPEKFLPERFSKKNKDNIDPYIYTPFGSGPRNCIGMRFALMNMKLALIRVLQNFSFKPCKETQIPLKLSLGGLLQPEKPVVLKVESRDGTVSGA
Description: For further understanding these terms in the context of this invention, attention is directed to FIG. 4 and the analysis of FIG. 4.
(§1) (respectively, MFC and MR).

CYP2C19 [2] = target: T2, CYP2C19 (Homo sapiens, UniProt P33261); assay: Kinetic properties of fluorogenic substrates with CYP 2C19; type: biochemical; conditions: for v (1.25 uM): turnover rate at 1.25 uM substrate; for v (1.25 uM) / v (10 uM): — = too low to quantify; for v (10 uM): turnover rate at 10 uM substrate
T2 sequence (P33261 whole entry): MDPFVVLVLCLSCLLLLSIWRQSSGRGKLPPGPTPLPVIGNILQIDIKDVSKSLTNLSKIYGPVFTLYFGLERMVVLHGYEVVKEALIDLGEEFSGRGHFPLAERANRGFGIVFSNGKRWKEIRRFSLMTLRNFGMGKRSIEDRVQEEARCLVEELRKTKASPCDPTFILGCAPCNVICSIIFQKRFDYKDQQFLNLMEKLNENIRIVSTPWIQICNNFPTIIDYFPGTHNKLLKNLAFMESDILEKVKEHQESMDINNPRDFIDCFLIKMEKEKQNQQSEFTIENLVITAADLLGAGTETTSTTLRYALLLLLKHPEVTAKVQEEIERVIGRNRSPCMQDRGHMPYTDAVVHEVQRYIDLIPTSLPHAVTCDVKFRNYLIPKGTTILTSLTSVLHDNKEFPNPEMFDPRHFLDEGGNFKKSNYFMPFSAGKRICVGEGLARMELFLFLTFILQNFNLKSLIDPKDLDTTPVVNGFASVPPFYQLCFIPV

CYP2C9 [3] = target: T3, CYP2C9 (Homo sapiens, UniProt P11712); assay: Kinetic properties of fluorogenic substrates with CYP 2C9; type: biochemical; conditions: for v (1.25 uM): turnover rate at 1.25 uM substrate; for v (10 uM): turnover rate at 10 uM substrate
T3 sequence (P11712 whole entry): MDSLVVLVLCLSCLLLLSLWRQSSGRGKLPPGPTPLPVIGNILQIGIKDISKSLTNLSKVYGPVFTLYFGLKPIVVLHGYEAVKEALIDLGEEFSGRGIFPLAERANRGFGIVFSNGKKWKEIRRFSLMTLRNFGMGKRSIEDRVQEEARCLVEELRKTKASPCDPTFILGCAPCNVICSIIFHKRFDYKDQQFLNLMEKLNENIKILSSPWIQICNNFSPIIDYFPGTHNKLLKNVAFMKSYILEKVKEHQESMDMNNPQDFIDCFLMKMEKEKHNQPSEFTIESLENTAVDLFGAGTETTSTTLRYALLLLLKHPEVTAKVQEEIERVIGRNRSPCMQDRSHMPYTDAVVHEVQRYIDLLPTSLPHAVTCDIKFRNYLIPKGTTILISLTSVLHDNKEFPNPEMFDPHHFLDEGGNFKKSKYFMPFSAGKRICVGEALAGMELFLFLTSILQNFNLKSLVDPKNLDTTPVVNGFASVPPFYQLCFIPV

CYP2C9 [4] = target: T3, CYP2C9; assay: Fluorescence signal from enzymatic metabolism over reagent addition background, CYP2C9; type: biochemical; conditions: OOMR and BOMCC vs MFC (FIG. 11)
Protocol: (§2) The assays were performed in a 96-well plate at room temperature and at a volume of 100 μl/well. […] (See Table 11.) The enzyme was made up in the appropriate K+ phosphate buffer at 10× and 10 μl/well was-added to the appropriate wells. (See Table 11.) The plate was read at 3 minute intervals for 12 minutes to obtain a background fluorescence levels. Readings were briefly interrupted to allow for the addition of 10 μl of 10×NADP+ in K+ phosphate buffer to each well. (See Table 11.) The readings were resumed at 3 minute intervals for another 12 minutes. […] To permit quantitative comparison between sensors that were or would be metabolized to yield fluorescent products of differing optical properties, the signal intensity corresponding to each well was normalized by division with the initial signal intensity (wells containing enzyme and buffer). […] The later increase in signal, approximately four minutes after the second addition and at later time points, is believed to be due to the enzymatic conversion of the substrate to the product. […] [table]

CYP 1A2 = target: T4, CYP 1A2 (Homo sapiens, UniProt P05177); assay: Kinetic properties of fluorogenic substrates with CYP 1A2; type: biochemical
T4 sequence (P05177 1-516): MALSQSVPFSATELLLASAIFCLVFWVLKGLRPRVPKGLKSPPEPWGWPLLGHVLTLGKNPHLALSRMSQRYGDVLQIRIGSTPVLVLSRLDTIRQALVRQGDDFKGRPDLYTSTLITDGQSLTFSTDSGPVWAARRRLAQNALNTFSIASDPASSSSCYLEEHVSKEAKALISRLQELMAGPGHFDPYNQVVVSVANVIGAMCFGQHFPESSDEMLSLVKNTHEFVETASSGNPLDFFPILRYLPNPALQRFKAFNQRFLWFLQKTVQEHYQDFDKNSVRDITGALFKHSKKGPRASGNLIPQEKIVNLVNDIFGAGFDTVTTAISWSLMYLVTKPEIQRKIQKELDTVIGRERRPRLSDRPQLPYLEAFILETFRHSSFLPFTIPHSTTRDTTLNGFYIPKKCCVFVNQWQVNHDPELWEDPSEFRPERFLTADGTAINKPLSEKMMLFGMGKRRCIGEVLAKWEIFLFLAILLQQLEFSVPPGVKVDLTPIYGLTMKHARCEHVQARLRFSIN

CYP2C19 [5] = target: T2, CYP2C19; assay: Fluorescence signal from enzymatic metabolism over reagent addition background, CYP2C19; type: biochemical; conditions: EOMCC vs CEC (FIG. 12)
Protocol: as §2

CYP2D6 [6] = target: T5, CYP2D6 (Homo sapiens, UniProt P10635); assay: Kinetic properties of fluorogenic substrates with CYP 2D6; type: biochemical
T5 sequence (P10635 whole entry): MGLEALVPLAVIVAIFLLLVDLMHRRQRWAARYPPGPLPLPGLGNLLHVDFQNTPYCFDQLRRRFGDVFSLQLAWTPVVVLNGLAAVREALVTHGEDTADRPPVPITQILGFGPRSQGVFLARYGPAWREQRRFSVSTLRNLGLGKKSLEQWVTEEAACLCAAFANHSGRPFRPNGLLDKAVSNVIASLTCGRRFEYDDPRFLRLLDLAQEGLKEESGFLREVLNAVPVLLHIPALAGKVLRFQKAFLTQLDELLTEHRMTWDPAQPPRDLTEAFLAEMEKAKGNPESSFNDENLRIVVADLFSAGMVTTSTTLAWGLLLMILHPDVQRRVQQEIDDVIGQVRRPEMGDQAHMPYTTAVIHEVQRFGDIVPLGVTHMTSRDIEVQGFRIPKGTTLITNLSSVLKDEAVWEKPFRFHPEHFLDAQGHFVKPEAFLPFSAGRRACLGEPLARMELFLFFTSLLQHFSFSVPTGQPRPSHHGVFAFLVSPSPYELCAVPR
Description: as §1

CYP2D6 [7] = target: T5, CYP2D6; assay: Fluorescence signal from enzymatic metabolism over reagent addition background, CYP2D6; type: biochemical; conditions: MOBFC vs AMMC (Gentest) (FIG. 10)
Protocol: as §2

[8] = Stability of substrate stock solution; type: physicochemical; conditions: 10 mM in acetonitrile, stored at 4° C. in the dark
Protocol: Substrate stock solutions were stable when stored at 4° C. in the dark. 7-Hydroxy-4trifluoromethylcoumarin dye standard was prepared at 1 mM in DMSO. […] Control wells receive the appropriate inhibition controls for each isozyme. Also, inhibitors are added to wells that contain the dye standards to permit addition of substrate and enzyme to all wells of the plate. • 2. […] 30 μl/well Enzyme/Recycling System buffer was added.

CYP3A4 [9] = target: T1, CYP3A4; assay: in vitro; conditions: pH 8
Description: Data for a product fluorescence standard calibration curve was generated in the following manner.

CYP 2B6 = target: T6, CYP 2B6 (Homo sapiens, UniProt P20813); assay: Kinetic properties of fluorogenic substrates with CYP 2B6; type: biochemical; conditions: for Km: human, CYP 2B6 isozyme; for Km / v (1.25 uM) / v (10 uM) / kcat: — = too low to quantify; for v (1.25 uM): turnover rate at 1.25 uM substrate; for v (10 uM): turnover rate at 10 uM substrate
T6 sequence (P20813 1-491): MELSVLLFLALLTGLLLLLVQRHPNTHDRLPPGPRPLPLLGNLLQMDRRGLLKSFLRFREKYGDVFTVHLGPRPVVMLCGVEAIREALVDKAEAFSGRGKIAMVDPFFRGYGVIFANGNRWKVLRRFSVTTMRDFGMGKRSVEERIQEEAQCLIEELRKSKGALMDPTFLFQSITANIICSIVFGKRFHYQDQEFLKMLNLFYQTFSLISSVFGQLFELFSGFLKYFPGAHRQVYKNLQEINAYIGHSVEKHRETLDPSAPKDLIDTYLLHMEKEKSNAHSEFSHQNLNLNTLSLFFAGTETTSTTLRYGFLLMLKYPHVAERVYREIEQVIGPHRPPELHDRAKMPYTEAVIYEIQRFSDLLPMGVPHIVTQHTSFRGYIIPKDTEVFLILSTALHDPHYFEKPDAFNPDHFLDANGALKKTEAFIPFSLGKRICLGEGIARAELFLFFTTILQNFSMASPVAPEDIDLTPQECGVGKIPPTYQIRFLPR

CYP3A4 [10] = target: T1, CYP3A4; assay: Kinetics of BOMR and BR toward CYP 3A4 (FIG. 4); type: biochemical; conditions: BOMR versus BR
Description: Whichever of the four abstractable hydrogen atoms (designated H^1 and H^2 in this representation of BOMR) is removed in the initial reaction step, with reference to Reaction Scheme 1 of FIG. 1, the hydroxylation product will spontaneously decompose to the free resorufin dye. In addition, the benzyloxy group, attached to the carbon carrying the two hydrogens designated H^2, contributes an inductive electronic effect on that carbon, which can stabilize the radical formed during abstraction of one of the H^2 hydrogens by a cytochrome P450.
Optimization of assay conditions was, and is preferably, accomplished through statistically validated Design of Experiments methodologies, using the commercial software package “Design-Expert®” produced by Stat-Ease® Inc. The data shown in FIGS. 4 and 5 were obtained with initial optimization.

CYP3A4 [11] = target: T1, CYP3A4; assay: Fluorescence signal from enzymatic metabolism over reagent addition background, CYP3A4; type: biochemical; conditions: BOMR vs benzylresorufin (FIG. 8); BOMCC vs BFC (FIG. 9)
Protocol: as §2

Row | Structure (SMILES) | v (1.25 uM) (CYP3A4 [1]; — = too low to quantify) | v (10 uM) (CYP3A4 [1]; — = too low to quantify) | v (1.25 uM) (CYP2C19 [2]) [min⁻¹] | v (10 uM) (CYP2C19 [2]) [min⁻¹] | v (1.25 uM) (CYP2C9 [3]; — = too low to quantify) [min⁻¹] | v (10 uM) (CYP2C9 [3]; — = too low to quantify) | signal to background versus prior commercially available substrate (CYP2C9 [4]) | type of kinetics (CYP2C19 [2]) | type of kinetics (CYP3A4 [1]) | type of kinetics (CYP2C9 [3]) | type of kinetics (CYP 2B6) | Km (CYP 2B6) [µM] | v (1.25 uM) (CYP 2B6) [min⁻¹] | v (10 uM) (CYP 2B6) [min⁻¹] | kcat (CYP 2B6) [s⁻¹] | signal to background versus prior commercially available substrate (CYP3A4 [11]) | also measured
1 | CCCCCCCCOCOc1ccc2nc3ccc(=O)cc-3oc2c1 [OOMR, Octyloxymethylresorufin] | 0.323 min⁻¹ | 0.601 min⁻¹ | 0.1 | 0.13 | 0.137 | 0.31 min⁻¹ | superior signal to background | – | – | – | – | – | – | – | – | – | –
2 | CCOCOc1ccc2cc(C#N)c(=O)oc2c1 [EOMCC] | – | – | 0.34 | 2.22 | – | – | – | Michaelis-Menten | – | – | – | – | – | – | – | – | type of kinetics (CYP 1A2): Michaelis-Menten; v (1.25 uM) (CYP 1A2; turnover rate at 1.25 uM substrate): 1.77 min⁻¹; v (10 uM) (CYP 1A2; turnover rate at 10 uM substrate): 9.95 min⁻¹; signal to background versus prior commercially available substrate (CYP2C19 [5]): superior signal to background
3 | COc1ccc(COc2ccc3c(C(F)(F)F)cc(=O)oc3c2)cc1 [MOBFC] | 0.0214 min⁻¹ and 0.02 min⁻¹ | 0.3453 min⁻¹ and 0.35 min⁻¹ | – | – | 0.02 | 0.188 min⁻¹ and 0.19 min⁻¹ | – | – | Michaelis-Menten | Michaelis-Menten | – | – | – | – | – | – | kcat (CYP2C9 [3]; — = too low to quantify): 0.005 s⁻¹; type of kinetics (CYP2D6 [6]): Michaelis-Menten; v (1.25 uM) (CYP2D6 [6]; turnover rate at 1.25 uM substrate, — = too low to quantify): 0.09 min⁻¹; v (10 uM) (CYP2D6 [6]; turnover rate at 10 uM substrate, — = too low to quantify): 0.49 min⁻¹; signal to background versus prior commercially available substrate (CYP2D6 [7]): superior signal to background; stability of substrate stock solutions [8]: stable
4 | Clc1ccc(COC(Cn2ccnc2)c2ccc(Cl)cc2Cl)c(Cl)c1 (stereo not drawn) [miconazole] | – | – | – | – | – | – | – | – | – | – | – | – | – | – | – | – | inhibition at 1 h, 10 µM (CYP3A4 [9]): ~100%
5 | O=c1ccc2nc3ccc(OCOCc4ccccc4)cc3oc-2c1 [BOMR, Benzyloxymethylresorufin] | 0.55 min⁻¹ | 0.88 min⁻¹ | – | – | – | – | – | – | Michaelis-Menten | – | notMichaelis-Menten | 0.73 | 0.28 | 0.71 | 0.013 | superior signal to background | CYP 3A4 turnover rate relative to BR (CYP3A4 [10]): approximately five
6 | N#Cc1cc2ccc(OCOCc3ccccc3)cc2oc1=O [BOMCC, 7-Benzyloxymethyloxy-3-cyanocoumarin] | 0.12 min⁻¹ | 0.98 min⁻¹ | 0.16 | 0.68 | 0.04 | 0.42 min⁻¹ | superior signal to background | Michaelis-Menten | sigmoidal | Michaelis-Menten | Michaelis-Menten | 52 | 0.38 | 3.05 | 1.1 | superior signal to background | kcat (CYP3A4 [1]; ( ) = from Michaelis-Menten fit, — = too low to quantify): (10.0) min-1
